# Laboratory results from article PMC10795196, “Self-Assembled Materials Based on Fully Aromatic Peptides: The Impact of Tryptophan, Tyrosine, and Dopa Residues” (Langmuir, 2024).
# Non-standard residues stand in square brackets, D forms with d. Residues, ends and D or L forms follow the SMILES beside them. No end group written: not given here. Dopa = N[C@@H](Cc1ccc(O)c(O)c1)C(=O)O; AEEA = NCCOCCOCC(=O)O
# Experiment: Water solubility determined spectroscopically (absorbance at 280 nm)
# Type: physicochemical
# Conditions: direct dissolution of powder in bidistilled water, centrifuged solutions, UV absorbance at 280 nm with calculated ε
# Method: Peptide solutions were prepared by direct dissolution of pure powders in bidistilled water. The analytical concentration of solutions was spectroscopically determined by absorbance on a UV–vis Thermo Fisher Scientific Inc. (Wilmington, Delaware, USA) Nanodrop 2000c spectrophotometer equipped with a 1.0 cm quartz cuvette (Hellma) using the molar absorptivity (ε) at 280 nm reported in Table 1. For each peptide, the ε was calculated using the formula ε(280)= [x·5500 + y·1215 + k·2630] [L·cm^–1·mol^–1], where x, y, and k were the numbers of W, Y, and Dopa residues, respectively. […] Hydrogel formation was triggered using the “solvent switch” method, which consists of the addition of water to a peptide stock solution (100 mg/mL in DMSO). The peptide concentration after water addition was 1.0 wt % (10.0 mg/mL).
# To deeply investigate the molecular determinant that can positively or negatively affect the aggregation process, herein, we evaluated the impact generated by replacement of the Phe residue with the Trp (W) one. Trp was selected to assess the effect of a more sterically hindered residue containing the heteroaromatic indole group. On the other side, Tyr residues were replaced by Dopa, characterized by the catechol group in place of the phenol one. Using this design, two novel peptides [(WY)3 and (W-Dopa)3] and their N-PEGylated analogues [PEG8-(WY)3 and PEG8-(W-Dopa)3] were designed (Figure 1). The novel sequences were synthesized using a solid-phase approach, according to the Fmoc/tBu protocols on Rink amide MBHA resin. This support allows for obtaining amidation of the C-terminus. Due to the major steric hindrance of the Trp residue, the synthesis of these primary sequences was more difficult than the previously reported ones and required the employment of a DMF/NMP mixture as solvent. After purification, peptides were lyophilized and their identity was assessed by LC-MS (Figures S1–S4 and Table 1). The estimation of the peptide solubility was spectroscopically determined by recording the absorbance spectra (Figure S5) on the centrifuged peptide solutions. […] As expected, peptides derivatized with the PEG moiety are more soluble than their corresponding unPEGylated versions, thus confirming PEGylation as a helpful strategy to improve intrinsic water solubility of all-aromatic sequences.
row,Compound,solubility thermodynamic [µg/mL]
1,NC(=O)[C@H](Cc1ccc(O)c(O)c1)NC(=O)[C@H](Cc1c[nH]c2ccccc12)NC(=O)[C@H](Cc1ccc(O)c(O)c1)NC(=O)[C@H](Cc1c[nH]c2ccccc12)NC(=O)[C@H](Cc1ccc(O)c(O)c1)NC(=O)[C@@H](N)Cc1c[nH]c2ccccc12 [(W-Dopa)3] (H-W[Dopa]W[Dopa]W[Dopa]-NH2),7610
2,NCCOCCOCC(=O)NCCOCCOCC(=O)NCCOCCOCC(=O)NCCOCCOCC(=O)N[C@@H](Cc1c[nH]c2ccccc12)C(=O)N[C@@H](Cc1ccc(O)c(O)c1)C(=O)N[C@@H](Cc1c[nH]c2ccccc12)C(=O)N[C@@H](Cc1ccc(O)c(O)c1)C(=O)N[C@@H](Cc1c[nH]c2ccccc12)C(=O)N[C@@H](Cc1ccc(O)c(O)c1)C(N)=O [PEG8-(W-Dopa)3] (H-[AEEA][AEEA][AEEA][AEEA]W[Dopa]W[Dopa]W[Dopa]-NH2),15000
3,NCCOCCOCC(=O)NCCOCCOCC(=O)NCCOCCOCC(=O)NCCOCCOCC(=O)N[C@@H](Cc1c[nH]c2ccccc12)C(=O)N[C@@H](Cc1ccc(O)cc1)C(=O)N[C@@H](Cc1c[nH]c2ccccc12)C(=O)N[C@@H](Cc1ccc(O)cc1)C(=O)N[C@@H](Cc1c[nH]c2ccccc12)C(=O)N[C@@H](Cc1ccc(O)cc1)C(N)=O [PEG8-(WY)3] (H-[AEEA][AEEA][AEEA][AEEA]WYWYWY-NH2),3770
4,WYWYWY-NH2 [(WY)3],1150
